{"source": "patent US20260207649A1", "about": "“LSD1 INHIBITOR AND PRMT6 INHIBITOR FOR USE IN THE TREATMENT OF A DISEASE ASSOCIATED WITH GAIN-OF-FUNCTION OF ANDROGEN RECEPTOR (AR) AND/OR WITH OVEREXPRESSION OF AN AR COACTIVATOR” (FONDAZIONE TELETHON ETS(30%), priority 2022, published 2026)", "molecules": {"B1": {"name": "amiR-Lsd1 #2: artificial miRNA targeting mouse Lsd1, oligos SEQ ID NO: 155, 156 (nucleic acid)", "chain 1": "TGCTGTTTACTTGTTTGCTGACGACAGTTTTGGCCACTGACTGACTGTCGTCAAAACAAGTAAA", "chain 2": "CCTGTTTACTTGTTTTGACGACAGTCAGTCAGTGGCCAAAACTGTCGTCAGCAAACAAGTAAAC", "modifications": "expressed or natural sequence"}, "B2": {"name": "amiR-Lsd1 #1: artificial miRNA targeting mouse Lsd1, oligos SEQ ID NO: 153, 154 (nucleic acid)", "chain 1": "TGCTGTTTCTCTGTATTCTACCTTGGGTTTTGGCCACTGACTGACCCAAGGTAATACAGAGAAA", "chain 2": "CCTGTTTCTCTGTATTACCTTGGGTCAGTCAGTGGCCAAAACCCAAGGTAGAATACAGAGAAAC", "modifications": "expressed or natural sequence"}, "B3": {"name": "amiR-Prmt6 #2: artificial miRNA targeting mouse Prmt6, oligos SEQ ID NO: 141, 142 (nucleic acid)", "chain 1": "TGCTGCGGAGTAGCACTCGTAGTACAGTTTTGGCCACTGACTGACTGTACTACGTGCTACTCCG", "chain 2": "CCTGCGGAGTAGCACGTAGTACAGTCAGTCAGTGGCCAAAACTGTACTACGAGTGCTACTCCGC", "modifications": "expressed or natural sequence"}, "B4": {"name": "amiR-Prmt6 #7: artificial miRNA targeting mouse Prmt6, oligos SEQ ID NO: 151, 152 (nucleic acid)", "chain 1": "TGCTGTATTAGATTAGAGTGCTCGCGGTTTTGGCCACTGACTGACCGCGAGCACTAATCTAATA", "chain 2": "CCTGTATTAGATTAGTGCTCGCGGTCAGTCAGTGGCCAAAACCGCGAGCACTCTAATCTAATAC", "modifications": "expressed or natural sequence"}, "B5": {"name": "amiR-Prmt6 #6: artificial miRNA targeting mouse Prmt6, oligos SEQ ID NO: 149, 150 (nucleic acid)", "chain 1": "TGCTGAATCAGACCATGTTGCCTTTCGTTTTGGCCACTGACTGACGAAAGGCAATGGTCTGATT", "chain 2": "CCTGAATCAGACCATTGCCTTTCGTCAGTCAGTGGCCAAAACGAAAGGCAACATGGTCTGATTC", "modifications": "expressed or natural sequence"}, "B6": {"name": "amiR-Lsd1 #3: artificial miRNA targeting mouse Lsd1, oligos SEQ ID NO: 234, 235 (nucleic acid)", "chain 1": "TGCTGTTGATGAGAGGTATACATCACGTTTTGGCCACTGACTGACGTGATGTACCTCTCATCAA", "chain 2": "CCTGTTGATGAGAGGTACATCACGTCAGTCAGTGGCCAAAACGTGATGTATACCTCTCATCAAC", "modifications": "expressed or natural sequence"}}, "key": {"polyQ-expanded AR": {"test_system": "polyQ-expanded AR", "assay": "Transcriptional (ARE-luciferase) assay in HEK293T cells expressing polyQ-expanded AR", "type": "cell-based, human", "details": "AR65Q, DHT 10 nM, 16 h; for polyQ-expanded AR transactivation induced by DHT: mock-transfected, inhibitor 10 μM", "description": "(§1) Cell Cultures, Transfection, and Transduction MN1^9 and HEK293T (ATCC) cells were cultured and plated in DMEM complete medium [Dulbecco's Modified Eagle Medium supplemented with 10% fetal bovine serum (FBS), 1% penicillin/streptomycin (pen/strep), and 1% L-glutamine] and LNCaP cells in RPMI complete medium (Gibco Roswell Park Memorial Institute supplemented with 10% FBS, 1% penicillin/streptomycin, and 1% L-glutamine). C2C12 cells were cultured and differentiated to myotubes. Cells were kept in a humidified incubator with 5% CO2 at 37° C. HEK293T cells were transfected with polyethyleneimine (PEI) linear MW 25,000 Da (Sigma-Aldrich) according to well dimensions. DNA: PEI (0.5% v/v) ratio was 1:1. At 24 hours after the transfection the DMEM complete medium supplemented with 10% FBS was changed with DMEM supplemented with charcoal stripped FBS and cells were treated with vehicle (ethanol) or 10 nM DHT and harvested for the different analysis 24 h after the treatment. For the pharmacological inhibition, we treated cells with the LSD1 catalytic inhibitor tranylcypromine (TCP) and the PRMT inhibitor adenosine dialdehyde (AdOx) both at a final concentration of 10 μM, instead for the selective LSD1 inhibitor SP-2509, we used it at a final concentration of 100 nm. MN-1 cells were transfected with Lipofectamine 2000 according to manufacturer instructions (Thermo Fisher). MN1 and LNCaP cells were transiently transduced with lentiviruses (MOI 30) or transfected with 2 μg DNA using Lipofectamine 2000 CD Transfection Reagent (ThermoFisher Scientific, 12566014). The following day, positively transfected cells were selected with […] Blasticidin (PanReacApplichem, A3784,0025). After 24 hours of selection or at 48 hours post-transduction, cells were induced with 10 nM dihydrotestosterone (DHT) in DMEM or RPMI medium supplemented with 10% charcoal-stripped FBS, 1% pen/strep, and 1% L-glutamine. The SBMA iPSCs were derived and differentiated. iPSCs were maintained on Matrigel (Corning, 354277) coated tissue culture dishes in E8 Flex medium (Thermo Fisher, A2858501). […]"}, "normal AR": {"test_system": "normal AR", "assay": "Transcriptional (ARE-luciferase) assay in HEK293T cells expressing normal AR", "type": "cell-based, human", "details": "AR24Q, mock-transfected, DHT 10 nM, 16 h, inhibitor 10 μM", "description": "Cell Cultures, Transfection, and Transduction MN1^9 and HEK293T (ATCC) cells were cultured and plated in DMEM complete medium [Dulbecco's Modified Eagle Medium supplemented with 10% fetal bovine serum (FBS), 1% penicillin/streptomycin (pen/strep), and 1% L-glutamine] and LNCaP cells in RPMI complete medium (Gibco Roswell Park Memorial Institute supplemented with 10% FBS, 1% penicillin/streptomycin, and 1% L-glutamine). C2C12 cells were cultured and differentiated to myotubes. Cells were kept in a humidified incubator with 5% CO2 at 37° C. HEK293T cells were transfected with polyethyleneimine (PEI) linear MW 25,000 Da (Sigma-Aldrich) according to well dimensions. DNA: PEI (0.5% v/v) ratio was 1:1. At 24 hours after the transfection the DMEM complete medium supplemented with 10% FBS was changed with DMEM supplemented with charcoal stripped FBS and cells were treated with vehicle (ethanol) or 10 nM DHT and harvested for the different analysis 24 h after the treatment. […] MN-1 cells were transfected with Lipofectamine 2000 according to manufacturer instructions (Thermo Fisher). […] The following day, positively transfected cells were selected with […] Blasticidin (PanReacApplichem, A3784,0025). […]"}, "AR": {"test_system": "AR", "assay": "Transcriptional assay in HEK293T cells expressing AR24Q or AR65Q, with LSD1/PRMT6 overexpression or CRISPR silencing", "type": "cell-based, human", "details": "16 h, inhibitor 10 μM; for effect of overexpression of LSD1 on AR transactivation: AR24Q and AR65Q with LSD1, DHT 10 nM; for effect of overexpression of PRMT6 on AR transactivation: AR24Q and AR65Q with PRMT6, DHT 10 nM", "description": "Cell Cultures, Transfection, and Transduction MN1^9 and HEK293T (ATCC) cells were cultured and plated in DMEM complete medium [Dulbecco's Modified Eagle Medium supplemented with 10% fetal bovine serum (FBS), 1% penicillin/streptomycin (pen/strep), and 1% L-glutamine] and LNCaP cells in RPMI complete medium (Gibco Roswell Park Memorial Institute supplemented with 10% FBS, 1% penicillin/streptomycin, and 1% L-glutamine). C2C12 cells were cultured and differentiated to myotubes. Cells were kept in a humidified incubator with 5% CO2 at 37° C. HEK293T cells were transfected with polyethyleneimine (PEI) linear MW 25,000 Da (Sigma-Aldrich) according to well dimensions. DNA: PEI (0.5% v/v) ratio was 1:1. At 24 hours after the transfection the DMEM complete medium supplemented with 10% FBS was changed with DMEM supplemented with charcoal stripped FBS and cells were treated with vehicle (ethanol) or 10 nM DHT and harvested for the different analysis 24 h after the treatment. […] MN-1 cells were transfected with Lipofectamine 2000 according to manufacturer instructions (Thermo Fisher). […] The following day, positively transfected cells were selected with […] Blasticidin (PanReacApplichem, A3784,0025). After 24 hours of selection or at 48 hours post-transduction, cells were induced with 10 nM dihydrotestosterone (DHT) in DMEM or RPMI medium supplemented with 10% charcoal-stripped FBS, 1% pen/strep, and 1% L-glutamine. […] For differentiation stably transfected iPSCs were induced with Neural Induction Medium (NIM) containing […] doxycycline and 10 nM R1881. After 48 hours of doxycycline treatment, motor neurons were dissociated with accutase to single cells and re-plated on PDL/Laminin coated surfaces in Neural Differentiation Medium (NDM) containing […] doxycycline and 10 nM R1881. On day 4, half of the cell culture medium was removed and replaced by Neuron Medium (NM) containing 10 nM R1881.\nLuciferase assays were performed. In brief, HEK293T cells were transfected with vectors expressing non-expanded and polyglutamine-expanded AR together with vectors expressing the luciferase reporter gene under the control of a canonical androgen responsive element (ARE-Luc). To normalize data for transfection efficiency, the cells express Renilla reporter gene under the control of the timidine kinase (TK-Ren) transfected with ARE-Luc in a ratio of 1:10. Cells are treated with vehicle and DHT for 16 h and then processed for luciferase assay, as manufacturer's instructions (Promega)."}, "AR100Q mice": {"test_system": "AR100Q mice", "details": "three times a week, from week 4", "description": "A randomized cohort of male transgenic AR100Q mice and WT siblings was assigned to either control or treated group.\nPhenelzine was administered at a dose of 30 mg/Kg in drinking water; three times a week; TCP was administered at a dose of 6 mg/Kg intraperitoneal, three times a week.\nMice were randomized and the operators were blind for genotype and treatment. The phenotype was analyzed by looking at muscle strength with grip strength test."}, "AR24Q (human)": {"biological_target": "AR24Q (human) (UniProt P10275)", "assay": "cell-based or functional assay"}, "AR65Q (human)": {"biological_target": "AR65Q (human) (UniProt P10275)", "assay": "cell-based or functional assay"}, "Lsd1": {"test_system": "Lsd1", "assay": "Western blots of LSD1 in MN1 cells transfected with amiR vectors", "type": "cell-based, mouse", "description": "as §1, with “L-glutamine.” for “L-glutamine. The SBMA iPSCs were derived and differentiated. iPSCs were maintained on Matrigel (Corning, 354277) coated tissue culture dishes in E8 Flex medium (Thermo Fisher, A2858501).”\n(§2) The protein concentration was measured using the bicinchoninic acid (BCA) assay method (Pierce™ BCA® Protein Assay, Thermo Scientific). […]"}, "Prmt6": {"test_system": "Prmt6", "assay": "Western blots of PRMT6 in MN1 cells transfected with amiR vectors", "type": "cell-based, mouse", "description": "as §1, with “L-glutamine.” for “L-glutamine. The SBMA iPSCs were derived and differentiated. iPSCs were maintained on Matrigel (Corning, 354277) coated tissue culture dishes in E8 Flex medium (Thermo Fisher, A2858501).”\nas §2"}}, "note": "Like-named read-outs stand apart in the source and are kept apart here.", "data": [{"molecule": "C/C(=N\\NC(=O)c1cccc(S(=O)(=O)N2CCOCC2)c1)c1cc(Cl)ccc1O", "note": "[SP-2509]", "values": [{"measurement": "polyQ-expanded AR transactivation", "setting": "polyQ-expanded AR; inhibitor 100 nM", "value": "did not modify"}]}, {"molecule": "N[C@@H]1C[C@H]1c1ccccc1", "note": "(racemic) [TCP, tranylcypromine]", "values": [{"measurement": "polyQ-expanded AR transactivation induced by DHT", "setting": "polyQ-expanded AR", "value": "reduced"}, {"measurement": "normal AR transactivation induced by DHT", "setting": "normal AR", "value": "reduced"}, {"measurement": "effect of overexpression of LSD1 on AR transactivation", "setting": "AR", "value": "reduced"}, {"measurement": "effect of overexpression of PRMT6 on AR transactivation", "setting": "AR", "value": "attenuated"}, {"measurement": "phenotype of AR100Q mice (grip strength normalized to body weight)", "setting": "AR100Q mice; 6 mg/Kg intraperitoneal", "value": "ameliorated"}]}, {"molecule": "NNCCc1ccccc1", "note": "[Phenelzine, phenelzine]", "values": [{"measurement": "phenotype of AR100Q mice (grip strength normalized to body weight)", "setting": "AR100Q mice; 30 mg/Kg in drinking water", "value": "ameliorated"}]}, {"molecule": "Nc1ncnc2c1ncn2C(C=O)OC(C=O)CO", "note": "(stereo not shown) [AdOx, adenosine dialdehyde]", "values": [{"measurement": "polyQ-expanded AR transactivation induced by DHT", "setting": "polyQ-expanded AR", "value": "reduced"}, {"measurement": "normal AR transactivation induced by DHT", "setting": "normal AR", "value": "reduced"}, {"measurement": "effect of overexpression of LSD1 on AR transactivation", "setting": "AR", "value": "reduced"}, {"measurement": "effect of overexpression of PRMT6 on AR transactivation", "setting": "AR", "value": "attenuated"}]}, {"molecule": "protein arginine methyltransferase 6 (PRMT6) (from UniProt Q96LA8 1-375)", "values": [{"measurement": "AR transactivation (transcriptional assay, HEK293T cells)", "setting": "AR24Q (human)", "value": 3.1, "unit": "fold"}, {"measurement": "AR transactivation (transcriptional assay, HEK293T cells)", "setting": "AR65Q (human)", "value": 3.4, "unit": "fold"}]}, {"molecule": "B1", "values": [{"measurement": "silencing of Lsd1 expression", "setting": "Lsd1", "value": 70, "unit": "%"}]}, {"molecule": "B2", "values": [{"measurement": "silencing of Lsd1 expression", "setting": "Lsd1", "value": 50, "unit": "%"}]}, {"molecule": "B3", "values": [{"measurement": "silencing of Prmt6", "setting": "Prmt6", "value": "~ 50%"}]}, {"molecule": "B4", "values": [{"measurement": "silencing of Prmt6", "setting": "Prmt6", "value": "~ 50%"}]}, {"molecule": "B5", "values": [{"measurement": "silencing of Prmt6", "setting": "Prmt6", "value": "~ 50%"}]}, {"molecule": "B6", "values": [{"measurement": "silencing of Lsd1 expression", "setting": "Lsd1", "value": 70, "unit": "%"}]}]}
